Reference: patent US20240392239A1, “METHODS FOR MODULATING CELL PLURIPOTENCY AND SELF-RENEWAL PROPERTY” (Memorial Sloan-Kettering Cancer Center, priority 2021, published 2024)

Experiments:
ESC = settings: previous reports (ref 39); cited from earlier work
[1] = system: control and Acly-edited ESCs; settings: labeled acetate, 5 mM; 40 h of 2i/LIF withdrawal (FIG. 12D)
Method: Fatty acid analyses. To analyze fatty acids in scrum/LIF+2i-cultured ESCs undergoing exit from pluripotency, ESCs were seeded in maintenance medium in six-well plates overnight. The next day, cells were washed with PBS and changed into medium containing a 1:1 mix of glutamine-free DMEM and Neurobasal medium including N-2 supplement, B-27 supplement, 2-mercaptoethanol and 2 mM L-glutamine. […] At harvest, lysates were collected in PBS and centrifuged at 6,800 g for 5 min to pellet cells. To isolate fatty acids, cell pellets were resuspended in 400 μl HPLC grade methanol followed by 800 μl HPLC grade chloroform and samples were vortexed for 10 min at 4° C. 300 μl HPLC grade water then added to induce phase separation. 800 μl of the bottom chloroform layer was moved to a new tube and lyophilized. Dried samples were saponified by resuspending in 1 ml of 80% methanol with 0.3 M KOH and heating at 80° C. for 1 h in a glass vial. […]
Liquid chromatography-mass spectrometry. […] Metabolite quantitation was performed using a Q Exactive HF-X Hybrid Quadrupole-Orbitrap Mass Spectrometer equipped with an Ion Max API source and H-ESI II probe, coupled to a Vanquish Flex Binary UHPLC system (Thermo Scientific). […] Metabolites were detected over mass range of 70-1050 m/z in full scan positive mode, or SIM in positive mode using a quadrupole isolation window of 0.7 m/z. […]

Acly-edited ESCs [2] = settings: 2i/LIF withdrawal for 40 h; 5 mM sodium acetate (FIG. 12F)
Method: Viability assays. Serum/LIF+2i-adapted ESCs were seeded at a density of 24,000 cells per well of a 24-well plate in triplicate or quadruplicate. 24 h later, cells were washed with PBS and changed into either fresh scrum/LIF+2i medium or medium containing a 1:1 mix of glutamine-free DMEM and Neurobasal medium including N-2 supplement, B-27 supplement, 2-mercaptoethanol and 2 mM L-glutamine for 40 h. Cells were evaluated for propidium iodide (PI) on an LSRFortessa flow cytometer using FACSDiva software v8.0 (BD Biosciences). Analysis of PI exclusion was performed with FCS Express v.7.05 or FlowJo v10.8.0.

[3] = system: control and Acly-edited ESCs; settings: 2i/LIF withdrawal for 40 h with 5 mM sodium acetate, reseeded into 2i and LIF (FIG. 12K)
From the text: Colony formation assay. […] Medium was refreshed every 3 days.

[4] = system: mouse embryonic stem cells (ESCs); test: [U-13C] glucose tracing of TCA cycle metabolites in mouse embryonic stem cells; format: cell-based
Method: Metabolic analyses. […] For mass spectrometric analyses in C2C12 myoblasts and NSCLC cell lines, cells were seeded in six-well plates and medium was changed 24 h later. […] 48 h prior to harvest, myoblasts were supplemented with 1 μg/mL doxycycline to induce shRNA expression. For analysis of myotubes, cells seeded in six-well plates were grown to 100% confluence for 3 days, washed with PBS and changed to differentiation medium that was refreshed every day for 7 days. On the final day of differentiation, cells were washed with PBS and changed to experimental medium described above. For analysis of C2C12 myotube genetic hairpin lines, cells were processed as described above but medium was supplemented with 1 μg/mL doxycycline for the final four days of differentiation to induce shRNA expression. ESCs and NSCLC lines treated with inhibitors were processed as described above but medium was supplemented with DMSO, 50 μM BMS-303141 (catalog no. SML0784; […] Sigma) or 10 μM UK-5099 (catalog no. 4186; Tocris) for 24 h prior to harvest. […] After overnight incubation at -80° C., lysates were collected and centrifuged at 21,000 g for 20 min to remove protein. All extracts were further processed by LCMS (for analysis of NADH, lactate and pyruvate (deuterium labeling and lactate/pyruvate ratio) and succinate (deuterium labeling only) or GCMS (for all other analyses) as described below. Gas chromatography-mass spectrometry. […] Metabolites were further derivatized by adding 80 μl of N-methyl-N-(trimethylsilyl) trifluoroacetamide+1% TCMS (Thermo Fisher Scientific) and 70 μl ethyl acetate (Sigma-Aldrich) and then incubated at 37° C. for 30 min. Samples were analyzed using an Agilent 7890A Gas Chromatograph coupled to an Agilent […] mass selective detector. The gas chromatograph was operated in splitless injection mode with constant helium gas flow at 1 ml min^-1; 1 μl of derivatized metabolites was injected onto an HP-5 ms column and the gas chromatograph oven temperature ramped from 60 to 290° C. for 25 min. Peaks representing compounds of interest were extracted and integrated using the MassHunter software v.B.08 (Agilent Technologies) and then normalized to both the internal standard (d5-2HG) peak area and protein content of triplicate samples as determined by bicinchoninic acid assay (Thermo Fisher Scientific). Steady-state metabolite pool levels were derived by quantifying the following ions: d5-2HG, 354 m/z; αKG, 304 […]; citrate, 465 m/z; fumarate, 245 m/z; malate, 335 m/z; and succinate, 247 m/z. All peaks were manually inspected and verified relative to known spectra for each metabolite. Enrichment of [^13C] or [^2H] was assessed by quantifying the abundance of the following ions: aspartate, 334-346 m/z; citrate, 465-482 m/z; fumarate, 245-254 m/z; and malate, 335-347 m/z. […]

[5] = system: control and Acly-edited ESCs
Method: Quantification of gene expression. RNA was isolated from six-or twelve-well plates using TRIzol (Invitrogen) according to the manufacturer's instructions and 200 ng RNA was used for complementary DNA (cDNA) synthesis using the iScript cDNA Synthesis Kit (Bio-Rad). Quantitative real-time PCR analysis was performed in technical triplicate using QuantStudio 5 or 6 Flex (Applied Biosystems) with Power SYBR Green Master Mix (Thermo Fisher Scientific). All data were generated using cDNA from 3 independent wells for each condition. Actin was used as an endogenous control for all experiments. See Supplementary Table 1 for qRT-PCR primer sequences.

Acly-edited ESCs [6] = settings: 2i/LIF withdrawal for 40 h, 5 mM sodium acetate (FIG. 12E)
From the text: Western blotting. Protein lysates were extracted in 1×RIPA buffer (Cell Signaling Technology), separated by SDS-polyacrylamide gel electrophoresis and transferred to nitrocellulose membranes (Bio-Rad). For histone blots, cell pellets were flash frozen in ethanol and resuspended in Laemmli buffer for sonication. Samples were mixed with 5% BME and 0.01% bromophenol blue prior to identical separation as for protein lysates. Membranes were blocked in 3% milk in Tris-buffered saline with 0.1% Tween 20 (TBST) or 5% BSA in TBST and incubated at 4° C. with primary antibodies overnight. After TBST washes the next day, membranes were incubated with horseradish peroxidase-conjugated secondary antibodies for at least 2 h, incubated with enhanced chemiluminescence (Thermo Fisher Scientific) and imaged with an SRX-101A X-ray Film Processor (Konica Minolta). […]

[7] = system: non-small cell lung cancer (NSCLC) cell lines (H2170, A549, Calu-1); test: Isotope tracing ([U-13C] glucose or [U-13C] glutamine) of TCA cycle metabolites in NSCLC cell lines; format: cell-based, human; settings: 50 μM for 24 h
Method: (§1) C2C12 cells were maintained at sub-confluence as myoblasts unless otherwise noted. All myoblast experiments were performed in high glucose DMEM supplemented with 10% FBS and 4 mM L-glutamine. For differentiation into myotubes, C2C12 cells were grown to 100% confluence for three days and then washed with PBS and changed into differentiation medium composed of high glucose DMEM supplemented with 2% horse serum (catalog no. 26050070; Gibco), 4 mM L-glutamine and 100× insulin-transferrin-selenium-ethanolamine (ITS-X; catalog no. 51500056; Gibco) for the indicated length of time (3, 5 or 7 days). Differentiation medium was refreshed every day. For non-small cell lung cancer (NSCLC) cell line studies, H2170, A549, and Calu-1 cell lines were thawed and passaged in RPMI-1640 supplemented with 10% FBS before being transitioned to high glucose DMEM supplemented with 10% FBS and 4 mM L-glutamine for several passages prior to experiments. 143B cells were maintained in high glucose DMEM supplemented with sodium pyruvate, 10% FBS and penicillin-streptomycin. All cells routinely tested negative for Mycoplasma.
For mass spectrometric analyses in C2C12 myoblasts and NSCLC cell lines, cells were seeded in six-well plates and medium was changed 24 h later. […] 48 h prior to harvest, myoblasts were supplemented with 1 μg/mL doxycycline to induce shRNA expression. For analysis of myotubes, cells seeded in six-well plates were grown to 100% confluence for 3 days, washed with PBS and changed to differentiation medium that was refreshed every day for 7 days. On the final day of differentiation, cells were washed with PBS and changed to experimental medium described above. For analysis of C2C12 myotube genetic hairpin lines, cells were processed as described above but medium was supplemented with 1 μg/mL doxycycline for the final four days of differentiation to induce shRNA expression. ESCs and NSCLC lines treated with inhibitors were processed as described above but medium was supplemented with DMSO, 50 μM BMS-303141 (catalog no. SML0784; Sigma), 5 mM dichloroacetate (catalog no. 3447795; Sigma) or 10 μM UK-5099 (catalog no. 4186; Tocris) for 24 h prior to harvest. At harvest, metabolites were extracted with 1 mL ice-cold 80% methanol containing 2 μM deuterated 2-hydroxyglutaratc (d-2-hydroxyglutaric-2,3,3,4,4-d5 acid (d5-2HG)). […]
(§2) Gas chromatography-mass spectrometry. […] Samples were analyzed using an Agilent 7890A Gas Chromatograph coupled to an Agilent 5977C mass selective detector. […] Peaks representing compounds of interest were extracted and integrated using the MassHunter software v.B.08 (Agilent Technologies) and then normalized to both the internal standard (d5-2HG) peak area and protein content of triplicate samples as determined by bicinchoninic acid assay (Thermo Fisher Scientific). […]

Rex1::GFPd2 ESCs = test: Exit from naïve pluripotency, Rex1::GFPd2 reporter analysis; format: cell-based, mouse; settings: 2i/LIF withdrawal for 40 h; 50 μM (FIG. 4I)
Method: 2i/LIF-cultured ESCs were seeded at least 24 h prior to being washed with PBS and changed into serum-free maintenance medium without 2i or LIF at the indicated time before harvest (12, 24 or 40 h). Unless otherwise noted, cells were adapted to serum/LIF+2i culture prior to exit from naïve pluripotency.
Rex1::GFPd2 analysis. On the day of analysis, cells were trypsinized and resuspended in FACS buffer (PBS+2% FBS+1 mM EDTA) containing 4,6-diamidino-2-phenylindole (DAPI, 1 μg/mL). […] Viable cells were those excluding DAPI. Rex1::GFPd2 expression was measured by GFP mean fluorescence intensity (MFI) and quantified using FCS Express v7.0.5 or FlowJo v10.8.0.

[8] = system: ASNase-expressing 143B human osteosarcoma cells; test: [U-13C] asparagine tracing in ASNase-expressing 143B cells; format: cell-based; settings: 50 μM for 24 h (FIGS. 6E and 6F)
Method: 143B cells were plated in six-well plates; 24 h later, media was changed to DMEM supplemented with 10% dialyzed FBS, 1 mM asparagine and DMSO or 50 μM BMS-303141. After 20 h, media was changed to DMEM supplemented with 10% dialyzed FBS, 1 mM [U-^13C]asparagine and DMSO or 50 μM BMS-303141. Cells were extracted with 300 μL 80% methanol containing Valine-D8 as an internal control. 143B extracts were further processed by LCMS, described below.
Liquid chromatography-mass spectrometry.

C2C12 myoblasts = test: [U-13C] glucose tracing of TCA cycle metabolites in C2C12 myoblasts; format: cell-based, mouse
Method: as §1, with “143B cells were maintained in high glucose DMEM supplemented with sodium pyruvate, 10% FBS and penicillin-streptomycin. All cells routinely tested negative for Mycoplasma.” left out
as §2

[9] = [U-13C] glucose, three NSCLC cell lines (FIG. 6B)

Which ESC self-renewal (ESC) does the source give for `CC(=O)[O-].[Na+]` [acetate, sodium acetate] here?
The ESC self-renewal was “promotes”.

What about the “de novo lipid synthesis (fractional labeling of palmitate)” value [1] of the same compound?
Its value is “contributed”.

What about the “decline in viability observed in Acly-edited clones” value (Acly-edited ESCs [2]) of the same compound?
Its value is “only minimally rescued”.

What about the “colony formation ability (AP-positive colonies)” value [3] of the same compound?
The value was “tended to increase”.

And the “processivity (malate m+2/citrate m+2 ratio)” value ([4]; S/L-cultured ESCs, 5 mM sodium acetate for 24 h (FIGS. 15A-15D))?
Its value is “enhances”.

And the “markers of naïve pluripotency” value ([5]; 2i/LIF withdrawal for 40 h, 5 mM sodium acetate (FIGS. 12I-12J))?
Its value is “tended to increase”.

And the “effects of ACL loss on exit from pluripotency” value ([5]; Acly-edited ESCs, 5 mM sodium acetate, qRT-PCR, Rex1::GFPd2 MFI and AP-positive colonies (FIGS. 12I-12K))?
The value was “does not reverse”.

What about the histone acetylation (Acly-edited ESCs [6]) of the same compound?
Its histone acetylation is “restored”.

What does the source list for `COc1ccc(-c2ccccc2)cc1NS(=O)(=O)c1cc(Cl)cc(Cl)c1O` [BMS-303141]?
mal+2/cit+2 ratio ([7]; [U-13C] glucose, three NSCLC cell lines (FIG. 1E)): increased; fraction of citrate m+2 [7, 9]: only a minor effect; proportion of malate containing two labeled carbons (malate m+2) [7, 9]: increased; glutamine anaplerosis ([7]; [U-13C] glutamine, three NSCLC cell lines (FIG. 6C)): did not uniformly affect; downregulation of Rex1::GFPd2 reporter activity following 2i/LIF withdrawal (Rex1::GFPd2 ESCs): almost completely prevented; decrease in enrichment of the m+2 isotopologue of malate relative to citrate (Mal+2/Cit+2) ([4]; [U-13C] glucose, serum/LIF ESCs, 50 μM for 24 h (FIG. 2B)): mitigated; ratio of cit+2/cit+4 [8]: significantly increased

Which results are given for `N#C/C(=C\c1cn(-c2ccccc2)c2ccccc12)C(=O)O` [UK-5099]?
incorporation of glucose-derived carbons into TCA cycle metabolites (C2C12 myoblasts; 10 μM UK-5099 (MPCi) for 24 h (FIG. 10C)): reduced; mal+2/cit+2 ratio (C2C12 myoblasts; 10 μM UK-5099 (MPCi) for 24 h (FIG. 10D)): repressed; incorporation of glucose-derived carbons into TCA cycle metabolites ([4]; ESCs, 10 μM UK-5099 (MPCi) for 24 h (FIG. 10E)): reduced; mal+2/cit+2 ratio ([4]; ESCs, 10 μM UK-5099 (MPCi) for 24 h (FIG. 10F)): repressed
